Each structure is given as a SMILES string.

For assay [1], the target named is T1, cGMP-specific 3',5'-cyclic phosphodiesterase (Homo sapiens, UniProt O76074). As to the kind of experiment: Inhibition of PDE5A (unknown origin) using […] as substrate incubated for 1 hr by fluorescence polarization assay. (In fluorescence polarisation assays a small probe gives low polarisation when free and higher when bound to something large.)
For assay [2], the target named is T1, cGMP-specific 3',5'-cyclic phosphodiesterase. As to the kind of experiment: Inhibition of PDE5A (unknown origin) using […] as substrate at 100 nM incubated for 1 hr by fluorescence polarization assay relative to control.

As for `CC(C)c1c(C#N)c(=O)n(Cc2ccccc2)c2c(NC(C)c3ccccn3)cccc12` (centres undefined), in assay [1], half-maximal inhibition (IC50) was put at 39 nM.

`COc1ccc(-c2c(C#N)c(=O)n(Cc3ccccc3)c3c(NC(C)c4ccccn4)cccc23)cc1` (centres undefined) had an IC50 in assay [1] of 5 nM. Regarding `CC(Nc1cccc2c(C3CCCC3)c(C#N)c(=O)n(Cc3ccccc3)c12)c1ccccn1` (centres undefined), the inhibition in assay [2] was determined as 14%. Regarding `COc1ccc(Cn2c(=O)c(C#N)c(-c3ccc(C)cc3)c3cccc(NC(C)c4ccccn4)c32)cc1Cl` (centres undefined), in assay [2], the inhibition came out at 12%. In assay [1], `Cc1ccc(-c2c(C#N)c(=O)n(Cc3ccccc3)c3c(NCc4ccccc4)cccc23)cc1` came in with an IC50 of 20 nM. This lies in the double-digit nanomolar range. The compound `CC(Nc1cccc2c(C3CCCCC3)c(C#N)c(=O)n(Cc3ccccc3)c12)c1ccccn1` (centres undefined) came in with an IC50 in assay [1] of 34 nM. `Cc1ccc(-c2c(C#N)c(=O)n(Cc3ccc(F)cc3)c3c(NC(C)c4ccccn4)cccc23)cc1` (centres undefined) gave an inhibition in assay [2] of 5%. As to `Cc1ccc(-c2c(C#N)c(=O)n(Cc3ccccc3)c3ccc(NC(C)c4ccccn4)cc23)cc1` (centres undefined), the IC50 in assay [1] came out at 291 nM. In turn, `Cc1ccc(-c2c(C#N)c(=O)n(Cc3ccccc3)c3c(NC(C)c4ccccc4)cccc23)cc1` (centres undefined) showed an IC50 in assay [1] of 11 nM. Compared with the last compound, the IC50 is about 26-fold lower.

By IC50 is commonly meant the concentration that gives 50% inhibition. Read a high IC50 as weaker potency. For orientation: inhibition means the change of the read-out against control, counted positive when it falls. The low end stands for a response near the control, the high end for a response far below the control.
